The values that follow come from patent US20220289685A1, “ANTIMALARIAL HEXAHYDROPYRIMIDINE ANALOGUES” (UCB BIOPHARMA SRL, priority 2019, published 2022).

The structures appear in SMILES notation. Where a name gives a salt, the structure may show the parent alone.

For the first test, the system named is Plasmodium falciparum 3D7 strain. Nature of the test: P. falciparum 3D7 asexual blood stage assay (SYBR green readout). The test is classed as cell-based. The settings on record: Plasmodium falciparum, 3D7, Erythrocyte, 72 h. Put shortly:
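P. falciparum 3D7 in A+ erythrocytes (5% haematocrit, 0.5% parasitaemia) exposed 72 h at 37 °C under 1% O2/3% CO2 to 20-point 1.5-fold titrations, 50,000–15 nM in 0.5% DMSO. SYBR green lysis overnight, fluorescence 485/528 nm; normalized to mefloquine and DMSO, EC50 from biphasic two-site fit.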
Compound `C[C@@H]1C[C@H](N2C(=N)N[C@](C)(c3cccc(NC(=O)c4ncc(F)cc4C(F)(F)F)c3Cl)CC2=O)CCO1` (relative stereo) [Example 94, N-(2-Chloro-3-{(4S)-2-imino-4-methyl-1-[(2R*,4R*)-2-methyl-tetrahydropyran-4-yl]-6-oxo-hexahydropyrimidin-4-yl}phenyl)-5-fluoro-3-(trifluoromethyl)-pyridine-2-carboxamide hydrochloride] returned an IC50 of 81 nM.

In the case of `C[C@@H]1C[C@H](N2C(=N)N[C@](C)(c3cccc(NC(=O)c4cc(C#N)cc(C(F)(F)F)c4)c3Cl)CC2=O)CCO1` (relative stereo) [Example 95, N-(2-Chloro-3-{(4S)-2-imino-4-methyl-1-[(2R*,4R*)-2-methyl-tetrahydropyran-4-yl]-6-oxo-hexahydropyrimidin-4-yl}phenyl)-3-cyano-5-(trifluoromethyl)-benzamide hydrochloride], the half-maximal inhibitory concentration (IC50) is 34 nM.

Turning to `C[C@@H]1C[C@H](N2C(=N)N[C@](C)(c3cccc(NC(=O)c4cnccc4F)c3Cl)CC2=O)CCO1` (relative stereo) [Example 96, N-(2-Chloro-3-{(4S)-2-imino-4-methyl-1-[(2R*,4R*)-2-methyl-tetrahydropyran-4-yl]-6-oxo-hexahydropyrimidin-4-yl}phenyl)-4-fluoropyridine-3-carboxamide hydrochloride], half-maximal inhibition (IC50) required 565 nM.

`C[C@@H]1C[C@H](N2C(=N)N[C@](C)(c3cccc(NC(=O)c4cccc(Cl)c4F)c3Cl)CC2=O)CCO1` (relative stereo) [Example 97, 3-Chloro-N-(2-chloro-3-{(4S)-2-imino-4-methyl-1-[(2R* ,4R*)-2-methyltetrahydropyran-4-yl]-6-oxo-hexahydropyrimidin-4-yl]phenyl)-2-fluorobenzamide hydrochloride]: the IC50 was 21 nM.

`C[C@@H]1C[C@H](N2C(=N)N[C@](C)(c3cccc(NC(=O)c4cc(C#N)ccc4Cl)c3Cl)CC2=O)CCO1` (relative stereo) [Example 98, 2-Chloro-N-(2-chloro-3-{(4S)-2-imino-4-methyl-1-[(2R*,4R*)-2-methyltetrahydropyran-4-yl]-6-oxo-hexahydropyrimidin-4-yl}phenyl)-5-cyanobenzamide hydrochloride] had a 50% inhibitory concentration (IC50) of 45 nM.

For the compound `C[C@@H]1C[C@H](N2C(=N)N[C@](C)(c3cccc(NC(=O)c4cc(F)cc(C#N)c4)c3Cl)CC2=O)CCO1` (relative stereo) [Example 99, N-(2-Chloro-3-{(4S)-2-imino-4-methyl-1-[(2R*,4R*)-2-methyl-tetrahydropyran-4-yl]-6-oxo-hexahydropyrimidin-4-yl}phenyl)-3-cyano-5-fluorobenzamide hydrochloride], the IC50 came to 18 nM.

The compound `C[C@@H]1C[C@H](N2C(=N)N[C@](C)(c3cccc(NC(=O)c4ncc(F)cc4F)c3Cl)CC2=O)CCO1` (relative stereo) [Example 100, N-(2-Chloro-3-{(4S)-2-imino-4-methyl-1-[(2R*,4R*)-2-methyl-tetrahydropyran-4-yl]-6-oxo-hexahydropyrimidin-4-yl}phenyl)-3,5-difluoropyridine-2-carboxamide hydrochloride] returned an IC50 of 33 nM.

In turn, `C[C@@H]1C[C@H](N2C(=N)N[C@](C)(c3cccc(NC(=O)c4ccc(F)cc4OC(F)(F)F)c3Cl)CC2=O)CCO1` (relative stereo) [Example 102, N-(2-Chloro-3-{(4S)-2-imino-4-methyl-1-[(2R*,4R*)-2-methyl-tetrahydropyran-4-yl]-6-oxo-hexahydropyrimidin-4-yl}phenyl)-4-fluoro-2-(trifluoromethoxy)-benzamide hydrochloride] showed an IC50 of 35 nM.

Consider `C[C@@H]1C[C@H](N2C(=N)N[C@](C)(c3cccc(NC(=O)c4cncn4C)c3Cl)CC2=O)CCO1` (relative stereo) [Example 103, N-(2-Chloro-3-{(4S)-2-imino-4-methyl-1-[(2R*,4R*)-2-methyl-tetrahydropyran-4-yl]-6-oxo-hexahydropyrimidin-4-yl}phenyl)-3-methylimidazole-4-carboxamide hydrochloride], for which the IC50 was 17 nM.

For the compound `C[C@@H]1C[C@H](N2C(=N)N[C@](C)(c3cccc(NC(=O)c4cncc(C5CC5)c4)c3Cl)CC2=O)CCO1` (relative stereo) [Example 104, N-(2-Chloro-3-{(4S)-2-imino-4-methyl-1-[(2R*,4R*)-2-methyl-tetrahydropyran-4-yl]-6-oxo-hexahydropyrimidin-4-yl}phenyl)-5-cyclopropylpyridine-3-carboxamide hydrochloride], the IC50 is 19 nM.

`C[C@@H]1C[C@H](N2C(=N)N[C@](C)(c3cccc(NC(=O)c4cccc(-n5ccnc5)c4)c3Cl)CC2=O)CCO1` (relative stereo) [Example 105, N-(2-Chloro-3-{(4S)-2-imino-4-methyl-1-[(2R*,4R*)-2-methyl-tetrahydropyran-4-yl]-6-oxo-hexahydropyrimidin-4-yl]phenyl)-3-(imidazol-1-yl)benzamide hydrochloride]: 44 nM corresponded to half-maximal inhibition (IC50).

`COc1ccc(C#N)cc1C(=O)Nc1cccc([C@]2(C)CC(=O)N([C@@H]3CCO[C@H](C)C3)C(=N)N2)c1Cl` (relative stereo) [Example 106, N-(2-Chloro-3-{(4S)-2-imino-4-methyl-1-[(2R*,4R*)-2-methyl-tetrahydropyran-4-yl]-6-oxo-hexahydropyrimidin-4-yl}phenyl)-5-cyano-2-methoxybenzamide hydrochloride] returned an IC50 of 38 nM.

The compound `COc1c(C#N)cccc1C(=O)Nc1cccc([C@]2(C)CC(=O)N([C@@H]3CCO[C@H](C)C3)C(=N)N2)c1Cl` (relative stereo) [Example 107, N-(2-Chloro-3-{(4S)-2-imino-4-methyl-1-[(2R*,4R*)-2-methyl-tetrahydropyran-4-yl]-6-oxo-hexahydropyrimidin-4-yl}phenyl)-3-cyano-2-methoxybenzamide hydrochloride] yielded an IC50 of 27 nM.

`CC#Cc1cncc(C(=O)Nc2cccc([C@]3(C)CC(=O)N([C@@H]4CCO[C@H](C)C4)C(=N)N3)c2Cl)c1` (relative stereo) [Example 108, N-(2-Chloro-3-{(4S)-2-imino-4-methyl-1-[(2R*,4R*)-2-methyl-tetrahydropyran-4-yl]-6-oxo-hexahydropyrimidin-4-yl}phenyl)-5-(prop-1-ynyl)pyridine-3-carboxamide hydrochloride] registered an IC50 of 40 nM.

The compound `CC#Cc1cccc(C(=O)Nc2cccc([C@]3(C)CC(=O)N([C@@H]4CCO[C@H](C)C4)C(=N)N3)c2Cl)c1` (relative stereo) [Example 109, N-(2-Chloro-3-{(4S)-2-imino-4-methyl-1-[(2R*,4R*)-2-methyl-tetrahydropyran-4-yl]-6-oxo-hexahydropyrimidin-4-yl}phenyl)-3-(prop-1-ynyl)benzamide hydrochloride] yielded an IC50 of 23 nM.

`Cc1cn(-c2cccc(C(=O)Nc3cccc([C@]4(C)CC(=O)N([C@@H]5CCO[C@H](C)C5)C(=N)N4)c3Cl)c2)cn1` (relative stereo) [Example 110, N-(2-Chloro-3-{(4S)-2-imino-4-methyl-1-[(2R*,4R*)-2-methyl-tetrahydropyran-4-yl]-6-oxo-hexahydropyrimidin-4-yl}phenyl)-3-(4-methylimidazol-1-yl)-benzamide hydrochloride] had an IC50 of 288 nM.

`Cc1nccc(C(F)(F)F)c1C(=O)Nc1cccc([C@]2(C)CC(=O)N([C@@H]3CCO[C@H](C)C3)C(=N)N2)c1Cl` (relative stereo) [Example 111, N-(2-Chloro-3-{(4S)-2-imino-4-methyl-1-[(2R*,4R*)-2-methyl-tetrahydropyran-4-yl]-6-oxo-hexahydropyrimidin-4-yl}phenyl)-2-methyl-4-(trifluoromethyl)-pyridine-3-carboxamide hydrochloride] had an IC50 of 418 nM.

Consider `C[C@@H]1C[C@H](N2C(=N)N[C@](C)(c3cccc(NC(=O)c4cc(C#N)cn4C)c3Cl)CC2=O)CCO1` (relative stereo) [Example 113, N-(2-Chloro-3-{(4S)-2-imino-4-methyl-1-[(2R*,4R*)-2-methyl-tetrahydropyran-4-yl]-6-oxo-hexahydropyrimidin-4-yl}phenyl)-4-cyano-1-methylpyrrole-2-carboxamide trifluoroacetic acid salt], for which the midpoint of inhibition, the IC50, lay at 5 nM.

With `COc1nccc(C(F)(F)F)c1C(=O)Nc1cccc([C@]2(C)CC(=O)N([C@@H]3CCO[C@H](C)C3)C(=N)N2)c1Cl` (relative stereo) [Example 114, N-(2-Chloro-3-{(4S)-2-imino-4-methyl-1-[(2R*,4R*)-2-methyl-tetrahydropyran-4-yl]-6-oxo-hexahydropyrimidin-4-yl]phenyl)-2-methoxy-4-(trifluoromethyl)-pyridine-3-carboxamide hydrochloride], the IC50 was determined as 53 nM.

Staying with this test, now noted: Plasmodium falciparum, Erythrocyte; P. falciparum 3D7 in human erythrocytes, 72 h incubation, SYBR green fluorescence; read-out: IC50.
As to `C[C@@H]1C[C@H](N2C(=N)N[C@](C)(c3cccc(NC(=O)c4c(F)cc(F)cc4F)c3Cl)CC2=O)CCO1` (relative stereo) [Example 101, N-(2-Chloro-3-{(4S)-2-imino-4-methyl-1-[(2,R*,4R*)-2-methyl-tetrahydropyran-4-yl]-6-oxo-hexahydropyrimidin-4-yl]phenyl)-2,4,6-trifluorobenzamide hydrochloride], the IC50 came to 85 nM.

Consider `C[C@@H]1C[C@H](N2C(=N)N[C@](C)(c3cccc(NC(=O)c4ccc[n+]([O-])c4)c3Cl)CC2=O)CCO1` (relative stereo) [Example 112, N-(2-Chloro-3-{(4S)-2-imino-4-methyl-1-[(2R*,4R*)-2-methyl-tetrahydropyran-4-yl]-6-oxo-hexahydropyrimidin-4-yl]phenyl)-1-oxidopyridin-1-ium-3-carboxamide hydrochloride], for which the IC50 was determined as 707 nM.
